Measurements from patent publication US11279703B2, “Fused pyrimidine compounds as BRD4 and JAK2 dual inhibitors and methods for use thereof” (APTOSE BIOSCIENCES INC., priority 2016, dated 2022).

Target: BRD4-BD1 (Homo sapiens (Human), UniProt O60885)
Test: AlphaLisa bromodomain binding assay, BRD4-BD1
Conditions: Table 1; read-out: BRD4 IC50
Excerpt: An AlphaLisa assay was used to observe bromodomain binding and measure IC50s for the compounds disclosed herein. An AlphaLisa assay is a bead-based assay used to detect interactions between bromodomains and polyacetylated histone peptides. Donor and acceptor beads bound to target and ligand are brought into proximity by this protein-protein interaction.
Equipment Required • 1. […] Plate centrifuge • 3. Plate shaker • 4. […] Single channel and multi-channel pipettes • 6. Microplate reader (Pherastar)
Stock and Final Assay Concentrations (FAC) • 1. All reference and test compounds are made at a concentration of 10 mM in DMSO. Compounds are serially diluted in DMSO and a FAC starting from 10 μM to 10 point 3 fold serial dilutions is arrived. FAC of DMSO is 1%. • 2. Enzyme stock and FAC
Biotinylated substrate (Acetylated histone H4, biotinylated substrate—cat no. AS64989-025, Anaspec) stock and FAC
• 4. Acceptor and donor beads stock and FAC
Buffers • For the enzyme and substrate dilution following buffer is used (for 50 ml) • HEPES: 50 mM 2.5 ml • NaCl: 25 mM 1.25 ml • DTT: 10 mM 0.05 ml • BSA: 0.1% 0.05 g • MilliQ water: 45.7 ml • For dilution of acceptor and donor beads AlphaLISA 5× epigenetics Buffer Perkin Elmer (Cat: AL008C) is used at 1× concentration.
Procedure • 1. […] Tap the plate gently • 3. […] Cover with plate sealer • 5. […] Incubate the plate at room temperature for 10 minutes • 7. Add 10 μl of the substrate • 8. Cover with plate sealer • 9. […] Cover with plate sealer • 14. […] Cover with plate sealer • 18.
The percent inhibition is calculated in the excel analysis template and the IC50 values are subsequently determined using a sigmoidal dose-response curve (variable slope) using GraphPad Prism® 5 software.

Row | SMILES | IC50
1 | CN1CCC(NC(=O)c2ccc(Nc3ncc4ccn(-c5ccc(F)c(NS(=O)(=O)C(C)(C)C)c5)c4n3)cc2F)CC1 [drawing 47] | 94 nM
2 | CN(C)C1CCN(c2ccc(Nc3ncc4ccn(-c5ccc(F)c(NS(=O)(=O)C(C)(C)C)c5)c4n3)cc2F)CC1 [drawing 48] | 63 nM
3 | CC(C)(C)S(=O)(=O)Nc1cc(-n2ccc3cnc(Nc4ccc(N5CCNCC5)c(F)c4)nc32)ccc1F [drawing 50] | 6 nM
4 | CC(C)(C)S(=O)(=O)Nc1cccc(Nc2nc(NC3CCNCC3)nc3sccc23)c1 [drawing 49] | 94 nM

Same assay, conditions: Table 2; read-out: BRD4 IC50

Row | SMILES | IC50
5 | CN1CCC(Nc2nc(-n3ccc(C(=O)NC4CC4)c3)c3ccsc3n2)CC1 [drawing 59] | 450 nM
6 | CC(C)(C)S(=O)(=O)Nc1cccc(Nc2nc(NC3CCNC3)nc3sccc23)c1 (centres unmarked) [drawing 54] | 1700 nM
7 | CC(C)(C)S(=O)(=O)Nc1cccc(Nc2nc(NC3CCNCC3)nc3sccc23)c1 [drawing 51] | 94 nM
8 | O=C(NC1CC1)c1ccn(-c2nc(NC3CCNCC3)nc3sccc23)c1 [drawing 60] | 399 nM
9 | CC(C)(C)S(=O)(=O)N1CCc2ccc(Nc3nc(NCC4CCNCC4)nc4sccc34)cc21 [drawing 56] | 1000 nM
10 | CN1CCN(c2ccc(Nc3nc(Nc4cccc(NS(=O)(=O)C(C)(C)C)c4)c4ccsc4n3)cc2)CC1 [drawing 52] | 388 nM
11 | CC(C)(C)S(=O)(=O)Nc1cccc(Nc2nc(NCC3CCNCC3)nc3sccc23)c1 [drawing 53] | 1200 nM
12 | CC(C)(C)S(=O)(=O)N1CCc2ccc(Nc3nc(NC4CCNC4)nc4sccc34)cc21 (centres unmarked) [drawing 58] | 2600 nM
13 | CN1CCC(Nc2nc(Nc3ccc4c(c3)N(S(=O)(=O)C(C)(C)C)CC4)c3ccsc3n2)CC1 [drawing 55] | 160 nM
14 | CC(C)(C)S(=O)(=O)N1CCc2ccc(Nc3nc(NC4CCOC4)nc4sccc34)cc21 (centres unmarked) | 3200 nM

Same assay, conditions: Table 5; read-out: BRD4 IC50

Row | SMILES | IC50
15 | CN1CCN(c2ccc(Nc3ncc4ccn(-c5cccc(NS(=O)(=O)C(C)(C)C)c5)c4n3)cc2)CC1 [drawing 73] | 220 nM

Same assay, conditions: Table 6; read-out: BRD4(1) IC50

Row | SMILES | IC50
16 | CC(C)(C)S(=O)(=O)N1CCc2ccc(Nc3nc(Nc4cccnc4)nc4c3COC4)cc21 | 3610 nM
17 | CN1CCN(c2ccc(Nc3ncc4ccn(-c5ccc(Cl)c(NS(=O)(=O)C6CC6)c5)c4n3)cc2)CC1 | 1700 nM
18 | CN1CCN(c2cccc(Nc3nc(Nc4cccc(NS(=O)(=O)C(C)(C)C)c4)c4ccsc4n3)c2)CC1 | 5020 nM
19 | Cc1noc(C)c1-c1cccc(-c2c[nH]c3nc(N4CCN(C)CC4)ncc23)c1 | 7190 nM
20 | CN1CCC(Nc2nc(-n3ccc(C(=O)NC4CC4)c3)c3ccsc3n2)CC1 [drawing 230] | 2200 nM
21 | CNCCCOc1ccc(Nc2ncc3ccn(-c4cccc(NS(=O)(=O)C(C)(C)C)c4)c3n2)cc1F [drawing 448] | 337 nM
22 | Cc1cnc(NC2CCN(C)CC2)nc1Nc1cccc(NS(=O)(=O)C(C)(C)C)c1 | 1340 nM
23 | CNCCNc1ncc2cc(-c3cccc(-c4c(C)noc4C)c3)ccc2n1 | 1100 nM
24 | CC(C)(C)S(=O)(=O)Nc1cccc(Nc2nc(NC3CCNCC3)nc3sccc23)c1 [drawing 237] | 194 nM
25 | O=C(NC1CC1)c1ccn(-c2nc(NC3CCNCC3)nc3sccc23)c1 [drawing 229] | 1830 nM
26 | CN1CCN(c2ccc(Nc3nc(Nc4ccc5c(c4)N(S(=O)(=O)C(C)(C)C)CC5)c4ccsc4n3)cc2)CC1 | 4560 nM
27 | Cc1noc(C)c1-c1cccc(-c2cn(C)c3nc(NC4CCNCC4)ncc23)c1 | 4400 nM
28 | CC(C)(C)S(=O)(=O)Nc1cccc(Nc2nc(NC3CCNCC3)nc3sccc23)c1 [drawing 159] | 344 nM
29 | CNCCNc1ncc2c(-c3cccc(-c4c(C)noc4C)c3)cn(C)c2n1 | 7500 nM
30 | Cc1noc(C)c1-c1ccc2nc(N)sc2c1 | 4890 nM
31 | Cc1ccc(Nc2nc(NC3CCNCC3)nc3sccc23)cc1NS(=O)(=O)C(C)(C)C | 318 nM
32 | CC1(C)CN(Cc2ccccc2)CCC1Nc1nc(Nc2cccc(NS(=O)(=O)C(C)(C)C)c2)c2ccsc2n1 (centres unmarked) | 7500 nM
33 | CNCCNc1ncc2c(-c3cccc(-c4c(C)noc4C)c3)c[nH]c2n1 | 3230 nM
34 | CC(C)(C)S(=O)(=O)N1CCc2ccc(Nc3nc(NCC4CCNCC4)nc4sccc34)cc21 [drawing 218] | 2170 nM
35 | CC(C)(C)S(=O)(=O)Nc1cccc(-n2ccc3cnc(Nc4ccc5c(c4)CCN4CCNCC54)nc32)c1 (centres unmarked) | 750 nM
36 | CN1CCN(c2ccc(Nc3ncc4ccn(-c5cccc(NS(=O)(=O)C(C)(C)C)c5)c4n3)cc2)CC1 [drawing 288] | 5010 nM
37 | O=C1NCCc2c1ccn2-c1cnc(Nc2ccc(F)cc2)nc1 | 11200 nM
38 | COc1ccc(Nc2ncc(-n3ccc4c3CCNC4=O)cn2)cc1 | 9740 nM
39 | CN1CCN(c2ccc(Nc3nc4c(c(Nc5cccc(NS(=O)(=O)C(C)(C)C)c5)n3)CCNC4)cc2)CC1 | 3200 nM
40 | CC(C)(C)S(=O)(=O)Nc1cccc(Nc2nc(NC3CCNCC3)nc3ccsc23)c1 | 608 nM
41 | CC(C)(C)S(=O)(=O)Nc1cccc(Nc2nc(NC3CCNCC3)nc3sccc23)c1 [drawing 151] | 94 nM
42 | CNc1ncc2c(-c3cccc(-c4c(C)noc4C)c3)c[nH]c2n1 | 10000 nM

Row | SMILES | IC50
43 | CC1=NCC(C)=C1C1CCCC(c2c[nH]c3nc(N4CCNCC4)ncc23)C1 (centres unmarked) | 4060 nM
44 | CC(C)(C)S(=O)(=O)N1CCc2ccc(Nc3nc(NC4CCNCC4)nc4c3COC4)cc21 | 1580 nM
45 | CN1CCC(Nc2nc3c(c(Nc4cccc(NS(=O)(=O)C(C)(C)C)c4)n2)COC3)CC1 | 2320 nM
46 | CC(C)(C)S(=O)(=O)Nc1cc(-n2ccc3cnc(Nc4ccc(N5CCNCC5)cc4)nc32)ccc1F | 208 nM
47 | COc1cc(Nc2ncc3ccn(-c4ccc(F)c(NS(=O)(=O)C5CC5)c4)c3n2)ccc1N1CCN(C)CC1 | 989 nM
48 | CC(C)(C)S(=O)(=O)Nc1cccc(Nc2nc(NCC3CCNCC3)nc3sccc23)c1 [drawing 220] | 2670 nM
49 | CN1CCN(c2ccc(Nc3ncc4ccn(-c5cccc(NS(=O)(=O)C(C)(C)C)c5)c4n3)cc2)CC1 [drawing 275] | 242 nM
50 | CN1CCN(c2ccc(Nc3nc4c(c(Nc5ccc6c(c5)N(S(=O)(=O)C(C)(C)C)CC6)n3)COC4)cc2)CC1 | 2390 nM
51 | CN1CCN(c2ccc(Nc3nc4c(c(Nc5cccc(NS(=O)(=O)C(C)(C)C)c5)n3)COC4)cc2)CC1 [drawing 188] | 526 nM
52 | CN1CCC(Nc2nc(Nc3ccc4c(c3)N(S(=O)(=O)C(C)(C)C)CC4)c3ccsc3n2)CC1 [drawing 185] | 220 nM
53 | CC(C)(C)S(=O)(=O)N1CCc2ccc(Nc3nc(NC4CCNC4)nc4sccc34)cc21 (centres unmarked) [drawing 217] | 2750 nM
54 | CN1CCC(c2ccc(Nc3ncc4ccn(-c5cccc(NS(=O)(=O)C(C)(C)C)c5)c4n3)cc2)CC1 | 581 nM
55 | Cc1cnc(Nc2ccc(N3CCN(C)CC3)cc2)cc1Nc1cccc(NS(=O)(=O)C(C)(C)C)c1 | 6310 nM
56 | CN1CCC(Nc2nc(Nc3ccc(Cl)c(NS(=O)(=O)C(C)(C)C)c3)c3ccsc3n2)CC1 | 180 nM
57 | Cc1cnc(Nc2ccc(N3CCN(C)CC3)c(F)c2)nc1Nc1ccc2c(c1)N(S(=O)(=O)C(C)(C)C)CC2 [drawing 235] | 155 nM
58 | CNCCCOc1ccc(Nc2ncc3ccn(-c4cccc(NS(=O)(=O)C(C)(C)C)c4)c3n2)cc1F [drawing 466] | 200 nM
59 | CN1CCN2c3c(F)cc(Nc4ncc5scc(-c6cccc(NS(=O)(=O)C(C)(C)C)c6)c5n4)cc3CC2C1 (centres unmarked) | 1800 nM
60 | CC(C)(C)S(=O)(=O)Nc1cccc(Nc2nc(NC3CCNC3)nc3sccc23)c1 (centres unmarked) [drawing 222] | 2380 nM
61 | CC(C)(C)S(=O)(=O)Nc1ccc(Nc2nc(NC3CCNCC3)nc3sccc23)cc1 | 7400 nM
62 | O=C1NCCc2c1ccn2-c1cnc(Nc2ccccc2)nc1 | 1780 nM
63 | CN1CCC(NC(=O)c2ccc(Nc3ncc4ccn(-c5cccc(NS(=O)(=O)C(C)(C)C)c5)c4n3)cc2)CC1 | 407 nM
64 | CN1CCC(Nc2nc(Nc3ccc4c(c3)N(S(=O)(=O)C(C)(C)C)CC4)c3sccc3n2)CC1 | 2110 nM
65 | CC(C)(C)S(=O)(=O)N1CCc2ccc(Nc3nc(NC4CCNCC4)nc4sccc34)cc21 | 640 nM
66 | Cc1ccc(Nc2nc(NC3CCN(C)CC3)nc3sccc23)cc1NS(=O)(=O)C(C)(C)C | 206 nM
67 | CN1CCN(c2ccc(Nc3nc(Nc4cccc(NS(=O)(=O)C(C)(C)C)c4)c4ccsc4n3)cc2)CC1 [drawing 153] | 609 nM
68 | CN1CCC(Nc2nc(Nc3cccc(NS(=O)(=O)C(C)(C)C)c3)c3ccsc3n2)CC1 | 376 nM
